Here are results for three substances from patent publication US6656921B1, “Use of zinc hyaluronate against peptic ulcer” (Richter Gedeon Vegyeszeti Gyar RT., priority 1997, dated 2003).

“And” between values parts separate entries of the source, which are not always exact repeats. Equal entries are not always repeated. Marks after values point to notes of the source that are not given here.

The test system of data set [1] is acidified ethanol induced gastric lesion. As to the kind of experiment: Inhibition of acidified-ethanol induced gastric lesions. Format: in vivo, rat. As to conditions: for Inhibition / Lesion length/stomach mm ± S.E.M.: 30 min before acidified ethanol. On the procedure:
Female RG-Wistar rats weighing between 120-150 g were used. Before experiments animals were fasted for 24 hours but received water ad libitum.
Experiments were carried out according to the technique similar to that described by A. Robert [Gastroenterology 77, […] (1979)].
Acidified ethanol (mixture of 50 ml of abs. ethanol and 1 ml of concentrated HCI) was used as strong irritants. Dose of acidified ethanol was 0.5 ml/100 g body weight with intragastric administration. Test compounds were given orally 30 minutes before the acidified ethanol challenge. When the duration of action of test compound was studied test material was administered 60 or 120 minutes earlier to the irritating effect induced by acidified-ethanol effect. One hour after the acidified ethanol treatment rats were sacrificed by cervical dislocation. Stomachs were removed and opened along the greater curvature and mildly washed down. The longitudinal hemorrhagic lesions were assayed by length.
ED50 value was defined as the dose that gave a 50% decrease in ulcer index.

The subject of data set [2] is indomethacin induced gastric lesion. The data set can be described thus: Inhibition of indomethacin induced gastric lesion. The settings on record: for ED50 (dose protecting the stomach by 50% from indomethacin): p.o. The format is in vivo, rat. On the procedure: 2. Inhibition of Indomethacin Induced Gastric Lesion Female RG Wistar rats weighing between 120-150 g were used. Before the experiments animals were fasted for 24 hours but received water ad libitum. Test compounds were given orally, 30 minutes later the animals were treated subcutaneously with indomethacin at a dose of 40 mg/kg. Four hours after the irritating indomethacin administration the animals were killed by cervical dislocation. The stomachs were removed, opened along the greater curvature and the hemorrhagic lesions were counted on the glandular stomach.
ED50 value represents the dose which protects the stomach by 50 % from the damaging effect of indomethacin.

The subject of data set [3] is indomethacin induced intestinal ulcer. As to the kind of experiment: Inhibition of indomethacin induced intestinal ulcer (tensile strength). Format: in vivo, rat. The settings on record: for Effect against indomethacin induced intestinal ulceration (in words): rat, in vivo; for Tensile strength of intestinal wall as index of ulceration Hgmm ± S.E.M.: indomethacin 15 mg/kg p.o. The protocol: Female, RG-Wistar, non-fasted rats weighing between 120-150 g were used. The intestinal ulcer was induced by oral administration of 15 mg/kg indomethacin. Test compound was given to animals orally 3 times over 48 hours in 24 hour equal intervals. The first introduction of test compound preceded the single indomethacin treatment by 60 minutes. Animals were killed 72 hours after the first administration of the test compound. Control animals received vehicle instead of test compound and normal rats mean non-fasted, non-treated rats. The small intestine segment from pylorus to cecum was removed, placed into 0.9% (w/v) sodium chloride solution at 37° C. and it was connected with a BP recorder through one of its ends via a polyethylene cannula. After ligating both ends of the prepartum the pressure was increased inside the intestine until air bubbles appeared at the weakened site of the intestinal wall. This pressure is expressed in Hgmm and is denoted tensile strength (TS).

In data set [4] the test system is acetic acid induced chronic gastric ulcer. As to the kind of experiment: Inhibition of acetic acid induced chronic gastric ulcer. The format is in vivo, rat. As to conditions: for Ulcerated area mm^2 ± S.E.M.: day 5 to 14 after surgery. On the procedure: Female, RG Wistar rats weighing between 120-150 g were used. Before the surgery animals were deprived of food for 24 hours but received water ad libitum. The chronic gastric ulcer was induced by the injection of 25 μl/animal of 20% (v/v) acetic acid into the gastric wall under light ether anaesthesia according to the method similar to that described by Takagi et al. (1969). The oral treatment with the test compounds was started five days after the surgery and continued in a once-a-day regimen up to the 14th day. The animals were killed on the 15th day and their stomachs were dissected. The severity of ulceration was evaluated by the measurement of the diameter of the ulcers and the area affected was calculated. The healing effect was expressed as differences in percentage between the control and test group values.

The next data set deals with Helicobacter pylori. As to the kind of experiment: Activity against Helicobacter pylori (agar MIC). Format: cell-based. The protocol:
These experiments were performed on Helicobacter pylori strains cultivated from the gastric biopsy samples of patients suffering from various ulcers. An 1% by (w/w) solutions of De-Nol (colloidal bismuth subcitrate) was used as reference substance. An agar medium supplemented with 10% of bovine blood was employed. Plates containing no substance to be tested were used as controls. The plates inoculated were incubated at 37° C. in a gas atmosphere containing 5% of oxygen and 7-8% of carbon dioxide for 3-5 days. Minimum inhibitory concentration (MIC) value was considered to be the lowest concentration of substances totally inhibiting the growth (propagation) of well-propagating bacteria on control plates.

The test system of data set [5] is gastrointestinal motility. The data set can be described thus: Gastrointestinal motility in the charcoal propulsion test. The settings on record: 100 mg/kg p.o. The format is in vivo, rat. On the procedure: Experiments were performed on female, RG-Wistar rats weighing 120-140 g, which were fasted for 24 hours but received water ad libitum.
The experimental procedure was carried out according to the technique similar to that described of P. A. Janssen and A. J. Jageneau [J. Pharm. Pharmacel. 9, 381 (1957)].
Test compounds were given orally at a dose of 100 mg/kg. Control animals received physiological saline solution instead of test compounds. 30 minutes later, the 5% (w/v) charcoal suspension was administered orally at a volume of 0.5 ml/animal. 60 minutes after the charcoal treatment the animals were sacrificed by cervical dislocation. The intestine from pylorus to cecum was removed, its lengths measured along with the distance traversed by the charcoal meal.
Motility was expressed as the ratio of length of charcoal suspension to the length of the whole intestine.

The mark [6] stands for this setting: 40 mg/kg p.o., 30 min before indomethacin.
The mark [7] stands for this setting: 80 mg/kg p.o., 30 min before indomethacin.
Setting [8] is: 160 mg/kg p.o., 30 min before indomethacin.

Regarding sucralfate [reference compound], the Inhibition in data set [1] (50 mg/kg p.o.) was 0%; in data set [1] (100 mg/kg p.o.) it was 75.3%; in data set [1] (400 mg/kg p.o.), 87.7%; in data set [2] (setting [6]), 14.8%; in data set [2] (setting [7]), 62.1%; in data set [2] (setting [8]), 82.8%. In addition, the entries for the “Lesion length/stomach mm ± S.E.M.” value in data set [1] (50 mg/kg p.o.), in data set [1] (100 mg/kg p.o.) and in data set [1] (400 mg/kg p.o.) were 64.0 ± 25.9 mm, 15.0 ± 5.5 mm and 7.5 ± 3.0 mm, respectively. Besides, the entries for the “Lesion number/stomach ± S.E.M.” value in data set [2] (setting [6]), in data set [2] (setting [7]) and in data set [2] (setting [8]) were 14.4 ± 4.8, 6.4 ± 2.2 and 2.9 ± 1.4, respectively. Moreover, the “ED50 (dose protecting the stomach by 50% from indomethacin)” value in data set [2] is reported as 74.9 mg/kg. Further, in data set [3], the “Effect against indomethacin induced intestinal ulceration (in words)” value is listed as “totally ineffective”. Moreover, the “Ulcerated area mm^2 ± s.e.m.” value is listed as 6.7 ± 1.5 mm^2 in data set [4] (100 mg/kg p.o. once a day) and 4.3 ± 1.3* mm^2 in data set [4] (500 mg/kg p.o. once a day). Also, in data set [4] (500 mg/kg p.o. once a day, ↓healing slowed down, ↑healing accelerated), the “Effect on healing %” value turned out to be 53%.

Turning to zinc hyaluronate, the “In vitro activity against Helicobacter pylori (in words)” value with Helicobacter pylori is “commensurable with activity of De-Nol”. The same substance gave an MIC against Helicobacter pylori (strain 822/96, agar medium with 10% bovine blood, 37° C., 3-5 days) of 500 µg/mL.

On to “zinc hyaluronate [Zinc hyaluronate (II)]”, for which the Inhibition in data set [1] (10 mg/kg p.o.) worked out at 42.7%; in data set [1] (25 mg/kg p.o.), 77.3%; in data set [1] (50 mg/kg p.o.), 84.1%; in data set [1] (100 mg/kg p.o.) it was 98.1%; in data set [2] (1.0 mg/kg p.o., 30 min before indomethacin) it was 31.8%; in data set [2] (10.0 mg/kg p.o., 30 min before indomethacin), 56.5%. Further, the Inhibition in data set [2] (100 mg/kg p.o., 30 min before indomethacin) was 78.2%. Further, the “Lesion length/stomach mm ± S.E.M.” value in data set [1] (10 mg/kg p.o.) worked out at 48.0 ± 10.9 mm; in data set [1] (25 mg/kg p.o.), 19.0 ± 4.4 mm; in data set [1] (50 mg/kg p.o.), 13.3 ± 4.8 mm; in data set [1] (100 mg/kg p.o.), 1.6 ± 0.5 mm. For the same substance, in data set [1] (p.o., 30 min pretreatment), the “ED50 (dose giving 50% decrease in ulcer index)” value came out at 11.1 mg/kg. The “Lesion number/stomach ± S.E.M.” value in data set [2] (1.0 mg/kg p.o., 30 min before indomethacin 40 mg/kg s.c.) is 8.8 ± 2.1; in data set [2] (10.0 mg/kg p.o., 30 min before indomethacin 40 mg/kg s.c.), 7.4 ± 1.9; in data set [2] (100 mg/kg p.o., 30 min before indomethacin 40 mg/kg s.c.) it was 3.7 ± 0.8. Besides, the “ED50 (dose protecting the stomach by 50% from indomethacin)” value in data set [2] was 5.8 mg/kg. Moreover, the “Tensile strength of intestinal wall as index of ulceration Hgmm ± S.E.M.” value in data set [3] (3 × 1 mg/kg p.o.) turned out to be 27.9 ± 8.9 Hgmm; in data set [3] (3 × 10 mg/kg p.o.) it was 41.3 ± 10.9 Hgmm; in data set [3] (3 × 100 mg/kg p.o.), 48.8 ± 11.3 Hgmm. For the same substance, the “Increase of tensile strength of intestinal wall compared to the control group” value in data set [3] (doses of 10 mg/kg and 100 mg/kg) is given as “almost three times”. In data set [3], the “Effect against indomethacin induced intestinal ulceration (in words)” value is “had a protective effect on the intestinal wall”. Moreover, the “Effect on the intestinal motility (in words)” value in data set [5] is given as “absence of change in activity”. The “Propulsion of charcoal suspension mm ± S.E.M.” value in data set [5] (30 min before charcoal, 60 min after charcoal, listed as Zink-hyaluronate (II)) worked out at 610 ± 3.9 mm. For the same substance, the “Ratio of charcoal suspension to the whole intestinal part” value in data set [5] (listed as Zink-hyaluronate (II)) is 0.77 ± 0.04. The “Ulcerated area mm^2 ± S.E.M.” value was 6.2 ± 1.0 mm^2 in data set [4] (0.01 mg/kg p.o. once a day); 5.8 ± 1.1 mm^2 in data set [4] (0.1 mg/kg p.o. once a day); 3.7 ± 1.6* mm^2 and 3.7 ± 0.6* mm^2 in data set [4] (1.0 mg/kg p.o. once a day). Besides, the “Effect on healing of acetic acid induced chronic ulcer (in words)” value in data set [4] (rat, in vivo) is “accelerated the healing”.
